For six compounds, Activity, IC50 and Kb results are on record in ChEMBL document CHEMBL4680320, “Exploiting the antiproliferative potential of spiropyrazoline oxindoles in a human ovarian cancer cell line” (Bioorg Med Chem, 2021).

Active and inactive are the calls of the source. The rule behind the calls is not given here.

In assay [1] the test system is A2780. Description: Induction of apoptosis in human A2780 cells assessed as PARP level at 8.5 uM after 48 hrs by Western blot analysis. It is filed as functional, cell-based. (A western blot detects proteins with antibodies after separation by electrophoresis.)
The test system of assay [2] is A2780. Description: Induction of mitochondrial membrane potential loss in human A2780 cells at 8.5 uM after 48 hrs by JC-1 staining based flow cytometry. The assay is classed as functional, cell-based. On the technique in general: A flow cytometer gives signals particle by particle.
The test system of a further assay is Fibroblast. Description: Cytotoxicity against human fibroblasts cells assessed as cell viability incubated for 48 hrs by MTS assay. The assay is classed as cell-based. (Tetrazolium dyes change colour on reduction, which living cells bring about.)
In assay [3] the test system is A2780. Put plainly: Antiproliferative activity against human A2780 cells assessed as cell viability incubated for 48 hrs by MTS assay. The settings on record: A2780, 48 h. The assay is classed as functional, cell-based.
In another assay the test system is MDA-MB-453. Description: Antiproliferative activity against human MDA-MB 453 cells assessed as reduction in cell viability incubated for 48 hrs by MTS assay. It is filed as functional, cell-based. The following applies: MDA-MB-453, 48 h.
The subject of assay [4] is A2780. Description: Induction of apoptosis in human A2780 cells assessed as apoptotic cells at 8.5 uM measured after 48 hrs by Hoechst staining based fluorescence microscopic analysis relative to control. The assay is classed as functional.
The test system of assay [5] is A2780. Put plainly: Induction of apoptosis in human A2780 cells assessed as late apoptotic cells at 8.5 uM measured after 48 hrs by Annexin-V/propidium iodide staining-based flow cytometric analysis (reference value: 6%). It is filed as functional.
For assay [6], the system named is A2780. Put plainly: Induction of apoptosis in human A2780 cells assessed as increased BAX expression at 8.5 uM after 48 hrs by Western blot analysis. The assay is classed as functional, cell-based.
For assay [7], the system named is A2780. Description: Induction of apoptosis in human A2780 cells assessed as decreased […] expression at 8.5 uM after 48 hrs by Western blot analysis. The assay is classed as functional, cell-based.
Assay [8] concerns A2780. Description: Induction of intracellular reactive oxygen species production in human A2780 cells at 8.5 uM measured after 48 hrs by DCFH-DA probe based fluorescence microscopic analysis. It is filed as functional, cell-based.
A further assay has as its system Cancer cell lines. Put plainly: Induction of apoptosis in human A2780 cells assessed as DNA damage after 48 hrs by fluorescence microscopic analysis. The assay is classed as functional, cell-based.
The subject of assay [9] is DNA. Description: Induction of DNA damage of Escherichia coli pUC18 plasmid DNA at 8.5 uM after 24 hrs by agarose gel electrophoresis method. The assay is classed as nucleic-acid assay.
The subject of assay [10] is Calf thymus DNA. Put plainly: Binding affinity to calf thymus DNA after 24 hrs by UV-vis spectroscopy. The settings on record: Bos taurus.
Assay [11] concerns A2780. Put plainly: Induction of necrosis in human A2780 cells at 8.5 uM measured after 48 hrs by Annexin-V/propidium iodide staining-based flow cytometric analysis. It is filed as functional, cell-based.
Assay [12] has as its system A2780. Description: Induction of autophagy in human A2780 cells assessed as autophagosome accumulation at 8.5 uM after 48 hrs by Hoechst staining based fluorescence microscopic analysis relative to control. The assay is classed as functional, cell-based.
Assay [13] deals with DNA. Description: Induction of DNA damage in human A2780 cells assessed as DNA fragmentation at 8.5 uM after 48 hrs by agarose gel electrophoresis. It is filed as cell-based.
For assay [14], the system named is Calf thymus DNA. Description: Binding affinity to calf thymus DNA at 100 uM by circular dichroism spectroscopy. The following applies: Bos taurus.
The subject of assay [15] is A2780. Put plainly: Effect on cell cycle distribution in human A2780 cells at 8.5 uM measured after 4 to 24 hrs by flow cytometry. The settings on record: time 4-24 hrs. It is filed as functional, cell-based.

As a reminder, the IC50 is the concentration that gives 50% inhibition.

`O=C1Nc2ccc(Br)cc2[C@]12[C@@H](c1ccccc1)C(c1ccccc1)=NN2c1ccccc1`: the outcome in the assay with A2780 [1], in the assay with A2780 [2], in the assay with A2780 [6], with A2780 [7], with Cancer cell lines and in the assay with A2780 [12] was Active. Further, the outcome with Calf thymus DNA [14] was Active. Further, the IC50 amounted to 55.2 µM in the assay on Fibroblast, 8.5 µM in the assay with A2780 [3] and 11.3 µM in the assay with MDA-MB-453. For the same compound, the Activity stood at 31% with A2780 [4] and 13% in the assay with A2780 [5]. For the same compound, the result in the assay with A2780 [8], with DNA [9], with A2780 [11], in the assay with DNA [13] and with A2780 [15] was inactive. Also, in the assay on Calf thymus DNA [10], the Kb is 7.09 10^6/M.

As for `CC(C)(C)C1=NN(c2ccccc2)[C@]2(C(=O)Nc3ccc(Br)cc32)[C@H]1c1ccccc1`, the 50% inhibitory concentration (IC50) in the assay with Fibroblast stood at 15.7 µM; in the assay with A2780 [3] it was 12.1 µM; in the assay with MDA-MB-453 it was 14.6 µM.

Consider `CC(C)(C)C1=NN(c2ccc(Cl)cc2)[C@]2(C(=O)Nc3cc(Cl)c(F)cc32)[C@H]1c1cccc(Cl)c1F`, for which the IC50 in the assay with Fibroblast is 12.9 µM; with A2780 [3] it was 9.9 µM; in the assay with MDA-MB-453, 15 µM.

Regarding `CC(C)(C)C1=NN(c2ccccc2)[C@]2(C(=O)Nc3cc(Cl)c(F)cc32)[C@H]1c1cccc(Cl)c1F`, the results for the IC50 with Fibroblast, in the assay on A2780 [3] and in the assay with MDA-MB-453 were 17.3 µM, 11.7 µM and 16.3 µM, respectively.

On to `COc1cccc2c1C(=O)c1c(O)c3c(c(O)c1C2=O)C[C@@](O)(C(=O)CO)C[C@@H]3O[C@H]1C[C@H](N)[C@H](O)[C@H](C)O1` [DOXORUBICIN], for which the IC50 in the assay with A2780 [3] came out at 0.6 µM.

As for `CC(C)(C)C1=NN(c2ccccc2)[C@]2(C(=O)Nc3cc(Cl)c(F)cc32)[C@H]1c1cccc(Cl)c1`, the half-maximal inhibitory concentration (IC50) in the assay with Fibroblast is 14.9 µM; with A2780 [3], 11.4 µM; with MDA-MB-453 it was 14.7 µM.
